The values that follow are results of earlier work, collected in patent publication US9238083B2, “Molecular probe for imaging of pancreatic islets and use of the same” (Kyoto University, priority 2009, dated 2016).

The subject of one data set is pancreatic islet cells. Conditions: cited from earlier work.
Data set [1] concerns GLP-1R-positive tumor cells. The following applies: cited from earlier work.

Turning to Lys^40(Ahx-DTPA-^111In)Exendin-4(9-39), the “uptake in pancreatic islets” value in the data set on pancreatic islet cells is “about 0.4%”. In addition, the “affinity with respect to GLP-1R” value with pancreatic islet cells (conclusion from the uptake results) is on record as “low affinity”. Besides, in data set [1], the “uptake in the GLP-1R-positive tumor cells” value was “about 7.5%”.
